Experiments:
[1] = test system: ischemic myocardial injury models prepared from white rats; assay: Antiischemic activity in the anesthetized rat ischemic myocardial injury model (coronary occlusion 45 min / reperfusion 90 min); format: in vivo; details: 0.3 mg/kg, intravenous (femoral vein), 30 min before occlusion
Protocol: 75 mg/kg of sodium pentobarbital was injected in abdominal cavity of white male rats (350-450 g, Laboratory Animal Division, Korea Research Institute of Chemical Technology) to anesthetize them. After performing tracheotomy, artificial respiration was induced by 10 ml/kg of stroke volume and 60/min. of heart rate. Cannula was inserted in each of vena fermoralis and aorta fermoralis, through which medicines were administered and blood pressure was measured. In the meantime, since body temperature in a ischemic myocardial injury model was very important factor, directly influencing a result, the temperature of a rat was always kept at 37° C. by using a probe for measuring body temperature inserted in rectum and homeothermic blanket control unit. Mean arterial blood pressure and heart rate (HR) of the rat were measured all through the experiments. Statham P23XL pressure transducer (Grass Ins., MA., USA) was used for measuring blood pressure and ECG/RATE Coupler (Hugo Sachs Electronic, Germany) was used for measuring HR. In addition, all the changes were recorded successively by graphtec linearcorder chart recorder (Graphtec Linearcorder WR 3310, Hugo Sachs Electronic).
According to the method of Selye H, left coronary aorta was occluded as follows. Left thoracotomy was induced. That is, the chest of a rat was a little opened. The right chest of the anesthetized rat was pressurized by the middle finger of left hand, so that the heart was pushed out. The heart was fixed gently by the thumb and the index finger of the left hand. A stitch was carefully put on a part including left anterior descending coronary artery by a suture needle with operating thread (5-0 silk ligature), and the heart was quickly positioned again in thoracic cavity. Then, both ends of operating thread were exposed outside. Both ends of operating thread were passed through PE tube (PE100, 2.5 cm) and left for 20 minutes for stabilization. A vehicle or a medicine was administered through the cannula inserted in femoral vein, which was left for 30 minutes in order for the medicine to work thoroughly. BMS-180448 was used for a control group and the dosage of each test medicine and a control medicine was 0.3 mg/kg each. […]
The coronary artery was reoccluded according to the above method and 2 ml of 1% Evans blue solution was administered by intravenous injection. […] The surface of each slice was inputted in a computer by using Hi-scope, a compact micro vision system, and Image pro plus program, from which both normal blood flow tissue area stained by blue and non-stained area on each slice were measured. The ratio of non-stained area to the gross area of each slice was calculated, by which the weight of each slice was multiplied to calculate AAR (area at risk) of each slice. […]

[2] = test system: ischemic heart isolated from white rat; assay: Cardioprotective effect on isolated ischemic rat heart (Langendorff, 30 min global ischemia / 30 min reperfusion); details: 10 μM; for LDH (concentration of lactate dehydogenase): after 30 min reperfusion; for EDP (left ventricular end diastolic pressure): after reperfusion, baseline set at 5 mmHg; for TTC (time to induce contraction / time to contracture): during 30 min global ischemia, first 5 mmHg increase in EDP; for LVDP × HR (left ventricular developed pressure × heart rate): reperfusion DP as % of pre-treatment DP, 30 min after reperfusion
Protocol: 100 mg/kg of sodium pentobarbital was injected in abdominal cavity of white male rats (300˜450 g, obtained form the experimental animal team of the Korea Research Institute of Chemical Technology) to anesthetize them. Then, an intravenous injection of 1000 U/kg of heparin was performed before taking out heart. Particularly, cannula(PE 240) was inserted in the trachea, and artificial respiration was tried upon the rat by using a rodent ventilator. Under that condition, aortic cannula was inserted in the aorta and heart was taken out under retrograde perfusion. The extracted heart was hung on Langendorff apparatus quickly and unnecessary tissues on heart were removed. Perfusion was induced under static pressure (85 mmHg) with 37° C. modified Krebs-Henseleit bicarbonate buffer (composition <mM/L>: 116 NaCl, 4.7 KCl, 1.1 MgSO4, 1.17 KH2PO4, 24.9 NaHCO3, 2.52 CaCl2, 8.32 Glucose, 2.0 Pyruvate) saturated with 95% O2/5% CO2. A metal cannula, to which a latex balloon filled with an ethanol-distilled water mixture (1:1 vol/vol) was linked, was inserted in left ventricle through pulmonary vein. Then, left ventricular pressure transmitted through the balloon was transduced by using pressure transducer, and amplified by using Plugsys bridge amplifier isovolumetrically. Then, the pressure was recorded in a recorder (Linearcorder mark 8 WR 3500). Thereafter, heart was stabilized for 15 minutes. Then, left ventricular end diastolic pressure (LVEDP) was given by 5 mmHg and such volume of the balloon was kept all through the experiments.
Baseline cardiac contractile function, heart rate (HR), and coronary flow (CF) were measured. Cardiac contractile function was calculated by […], yielding LVDP (left ventricular developed pressure). Double product RPP (rate-pressure product)(DP), another important parameter for indirectly assessing cardiac performance in Langendorff heart, whose cardiac output could not be measured ordinarily, was calculated by multiplying HR by LVDP. Throughout the experiment, total coronary blood flow was measured by the use of coronary flow probe (diameter: 1.0 mm) installed in aortic cannula with electromagnetic flowmeter. Temperature of heart was steadily maintained by immersing the heart at 37° C. in physiological saline solution to which 95% O2/5% CO2 was constantly supplied. After stabilization for 15 min, the hearts were pre-treated for 10 min with vehicle (0.04% DMSO) only or a compound of the present invention or the control material in the vehicle. Thereafter, cardiac contractile function, HR and CF were repeatedly measured. Global ischemia was induced by completely shutting off the perfusate for 30 min. Severity of ischemia was determined as the time to contracture (TTC, min) during global ischemia in which the first 5 mmHg increase in EDP was observed. Then, the hearts were reperfused and, 30 min later, contractile functions (LVDP, HR and CF) were repeatedly measured. After reperfusion was accomplished for 30 min, LDH (lactate dehydrogenase) was measured with a kit as a sensitive index for loss of cell viability.

COc1ccc2oc(=S)n([C@H]3c4cc([N+](=O)[O-])ccc4O[C@@](C)(C(OC)OC)[C@@H]3O)c2c1 [Example 10, (2R,3R,4S)-6-nitro-3,4-dihydro-3-hydroxy-2-dimethoxymethyl-2-methyl-4-(5-methoxy-2-thioxobenzoxazol-3-yl)-2H-1-benzopyran]
IZ/AAR(%) myocardial infarction size to area at risk [1]: 46.6% | LDH (concentration of lactate dehydogenase) [2]: 17.3 unit/g | EDP (left ventricular end diastolic pressure) [2]: 36.7 mmHg | TTC (time to induce contraction / time to contracture) [2]: 24.4 min | LVDP × HR (left ventricular developed pressure × heart rate) [2]: 54.2%

COC(OC)[C@]1(C)Oc2ccc([N+](=O)[O-])cc2[C@H](n2c(=S)oc3cccc(C)c32)[C@H]1O [Example 6, (2R,3R,4S)-6-nitro-3,4-dihydro-3-hydroxy-2-dimethoxymethyl-2-methyl-4-(4-methyl-2-thioxobenzoxazol-3-yl)-2H-1-benzopyran]
IZ/AAR(%) myocardial infarction size to area at risk [1]: 42.5% | LDH (concentration of lactate dehydogenase) [2]: 9.6 unit/g | EDP (left ventricular end diastolic pressure) [2]: 6.3 mmHg | TTC (time to induce contraction / time to contracture) [2]: 26.7 min | LVDP × HR (left ventricular developed pressure × heart rate) [2]: 74.3%

CC1(C)Oc2ccc(C#N)cc2[C@@H](NC(=NC#N)Nc2ccc(Cl)cc2)[C@@H]1O [BMS-180448, reference compound]
IZ/AAR(%) myocardial infarction size to area at risk [1]: 39.1% | LDH (concentration of lactate dehydogenase) [2]: 17.2 unit/g | EDP (left ventricular end diastolic pressure) [2]: 16.5 mmHg | TTC (time to induce contraction / time to contracture) [2]: 27.8 min | LVDP × HR (left ventricular developed pressure × heart rate) [2]: 67.6%

COC(OC)[C@]1(C)Oc2ccc([N+](=O)[O-])cc2[C@H](n2c(=S)oc3ccccc32)[C@H]1O [Example 1, (2R,3R,4S)-6-nitro-3,4-dihydro-3-hydroxy-2-dimethoxymethyl-2-methyl-4-(2-thioxobenzoxazol-3-yl)-2H-1-benzopyran]
IZ/AAR(%) myocardial infarction size to area at risk [1]: 39.6% | LDH (concentration of lactate dehydogenase) [2]: 4.6 unit/g | EDP (left ventricular end diastolic pressure) [2]: 19.8 mmHg | TTC (time to induce contraction / time to contracture) [2]: 25.3 min | LVDP × HR (left ventricular developed pressure × heart rate) [2]: 53.8%

Source: patent US7420060B2, “Benzopyran derivatives substituted with a thioxobenzoxazole derivative, pharmaceutically acceptable salts thereof, their preparations and pharmaceutical compositions containing them” (Schaeffler KG, priority 2003, dated 2008)
